We go through five molecules from US7371766B2, “Curcumin analogs with anti-tumor and anti-angiogenic properties” (Emory University, priority 1999, dated 2008).

Like-named read-outs stand apart in the source and are kept apart here.

The test system of data set [1] is Sixty human tumor cell lines. The following applies: for GI50: read-out: Median Growth Inhibitory Concentration (GI50), Mean, Mean over the NCI cell lines.
The test system of another data set is RPMI-7951 human melanoma. Description: Neutral Red Assay, cell viability, RPMI-7951. The following applies: RPMI-7951; for Cell Viability: DMSO = 100; for Neutral Red Uptake, %: 72 hours.
In the next data set the test system is EKVX. Description: cells. As to conditions: Homo sapiens, 48 h.
The next data set has as its system NCI-H460. Description: cells. As to conditions: Homo sapiens, NCI-H460, 48 h.
The test system of another data set is HCT-116. Description: cells. As to conditions: Homo sapiens, HCT-116, 48 h.
The test system of another data set is HCT-15. As to the kind of experiment: cells. As to conditions: Homo sapiens, HCT-15, 48 h.
A further data set deals with SW-620. As to the kind of experiment: cells. The following applies: Homo sapiens, SW-620, 48 h.
A further data set has as its system SF-539. As to the kind of experiment: cells. The following applies: Homo sapiens, SF-539, 48 h.
The subject of another data set is SNB-75. Description: cells. The following applies: Homo sapiens, SNB-75, 48 h.
The next data set relates to U251. Description: cells. As to conditions: Homo sapiens, U-251, 48 h.
Another data set has as its system MALME-3M. Description: cells. The following applies: Homo sapiens, 48 h.
Another data set concerns M14. As to the kind of experiment: cells. As to conditions: Homo sapiens, M14, 48 h.
Another data set relates to UACC-257. As to the kind of experiment: cells. As to conditions: Homo sapiens, UACC-257, 48 h.
A further data set deals with UACC-62. As to the kind of experiment: cells. As to conditions: Homo sapiens, UACC-62, 48 h.
Another data set has as its system IGROV1. Description: cells. As to conditions: Homo sapiens, IGROV-1, 48 h.
The test system of the next data set is OVCAR-5. As to the kind of experiment: cells. The following applies: Homo sapiens, OVCAR-5, 48 h.
Another data set relates to OVCAR-8. As to the kind of experiment: cells. The following applies: Homo sapiens, OVCAR-8, 48 h.
A further data set deals with CAKI-1. As to the kind of experiment: cells. The following applies: Homo sapiens, CAKI-1, 48 h.
Another data set concerns RXF 393. Description: cells. The following applies: Homo sapiens, RXF 393, 48 h.
Another data set concerns SN12C. As to the kind of experiment: cells. The following applies: Homo sapiens, 48 h.
The test system of a further data set is TK-10. As to the kind of experiment: cells. The following applies: Homo sapiens, TK-10, 48 h.
In another data set the test system is DU-145. Description: cells. The following applies: Homo sapiens, DU-145, 48 h.
In another data set the test system is MCF-7. As to the kind of experiment: cells. As to conditions: Homo sapiens, MCF7, 48 h.
Another data set deals with NCI/ADR-RES. Description: cells. The following applies: Homo sapiens, 48 h.
A further data set relates to MDA-MB-435. Description: cells. The following applies: Homo sapiens, MDA-MB-435, 48 h.
A further data set relates to MDA-N. Description: cells. As to conditions: Homo sapiens, 48 h.
The subject of the next data set is BT-549. As to the kind of experiment: cells. The following applies: Homo sapiens, BT-549, 48 h.
For another data set, the system named is T-47D. Description: cells. As to conditions: Homo sapiens, T47D, 48 h.
Data set [2] has as its system Sixty human tumor cell lines. As to the kind of experiment: cells. As to conditions: 48 h.
Where [3] appears, read: read-out: Median Growth Inhibitory Concentration (GI50).
[4] abbreviates: read-out: Median Lethal Concentration (LC50).
The mark [5] stands for this setting: NCI Anti-Tumor Screen, several cell types.

Experimental for RPMI-7951 human melanoma: RPMI-795 1, MDA-MB-231 and MDA-MB-435 cell lines were cultured in MEM-alpha medium (GIBCO-BRL, Long Island, N.Y.) containing 10% fetal bovine serum (RPMI-7951, MDA-MB-231) or 5% FBS (MDA-MB-435) at 37° C. and under 5% CO2/95% air. […] The cells were cultured in 48 well plates in all of the experiments described.
Neutral Red Assay was utilized to determine the effect of the compounds of the present invention on cell viability. Neutral Red was purchased from GIBCO-BRL (Long Island, N.Y.). Cells were plated at a concentration of 20,000 cells/well and cultured overnight. Compounds or vehicle (DMSO 0.1%) were then added and the plates were incubated for 72 hours. Supernatant from each well was either aspirated or collected and media containing Neutral Red (GIBCO-BRL, Long Island, N.Y.) at a concentration of 15 μl/ml was then added to each well. The plates were then incubated at 37° C. for 30 minutes. Next, the cells were washed with twice with PBS and alcoholic-HCl (0.5N—HCl/35% ethanol) was added to each well. The plates were then placed on a plate shaker until all residues were solubilized (pink color). The solubilized mixtures were then transferred to a 96 well plate and the absorbances were read on a micro-test plate reader at a wavelength of 570 nm.
Cell viability was determined by Neutral Red Assay.

With “3,5-Bis(2-hydroxybenzylidene)-sulfone [EF11]”, the GI50 in data set [1] (48 hours) is 34.7 µM. Further, the “Cell Viability” value with RPMI-7951 human melanoma (20 μM) was determined as 93%.

Take `OC(CCc1ccc(F)cc1F)CCc1ccc(F)cc1F` [EF19, 1,5-Bis(2,4-difluorophenyl)-pentan-3-ol]: the GI50 with EKVX (setting [3]) came to 17.5 µM; with NCI-H460 (setting [3]), 17.9 µM; with HCT-116 (setting [3]), 17.8 µM; with HCT-15 (setting [3]), 24.8 µM; in the data set with SW-620 (setting [3]), 17.7 µM; with SF-539 (setting [3]), 16.9 µM. The GI50 came out at 19 µM in the data set on SNB-75 (setting [3]); 17.4 µM in the data set on U251 (setting [3]); 18 µM with MALME-3M (setting [3]); 18.3 µM in the data set on M14 (setting [3]); 17.9 µM with UACC-257 (setting [3]); 15.1 µM with UACC-62 (setting [3]). The GI50 in the data set on IGROV1 (setting [3]) was 17.2 µM; in the data set on OVCAR-5 (setting [3]) it was 18.5 µM; in the data set on OVCAR-8 (setting [3]) it was 18 µM; with CAKI-1 (setting [3]) it was 21.8 µM; in the data set with RXF 393 (setting [3]), 18.8 µM; in the data set with SN12C (setting [3]), 17.4 µM. In addition, the GI50 in the data set with TK-10 (setting [3]) stood at 17.4 µM; in the data set on DU-145 (setting [3]) it was 18.1 µM; with MCF-7 (setting [3]), 17.7 µM; in the data set on NCI/ADR-RES (setting [3]), 25.3 µM; with MDA-MB-435 (setting [3]) it was 17.1 µM; with MDA-N (setting [3]) it was 16.9 µM. Also, the GI50 with BT-549 (setting [3]) stood at 17.9 µM; in the data set on T-47D (setting [3]), 15.5 µM; in data set [2] (read-out: Median Growth Inhibitory Concentration (GI50), Mean) it was 17.8 µM. Further, the CC50 in the data set on EKVX (setting [4]) is 57.7 µM; in the data set with NCI-H460 (setting [4]) it was 57.5 µM; in the data set with HCT-116 (setting [4]) it was 56.3 µM; in the data set on HCT-15 (setting [4]) it was above 100 µM; with SW-620 (setting [4]), 63.7 µM; in the data set on SF-539 (setting [4]), 55.3 µM. Also, the CC50 in the data set on SNB-75 (setting [4]) was 57.5 µM; in the data set on U251 (setting [4]), 55.8 µM; in the data set on MALME-3M (setting [4]) it was 59.6 µM; in the data set on M14 (setting [4]), 68.7 µM; in the data set on UACC-257 (setting [4]), 56.3 µM; in the data set on UACC-62 (setting [4]), 53.2 µM. For the same molecule, the CC50 with IGROV1 (setting [4]) was determined as 55.6 µM; with OVCAR-5 (setting [4]), 61.1 µM; in the data set on OVCAR-8 (setting [4]) it was 67.3 µM; in the data set with CAKI-1 (setting [4]), 67.8 µM; in the data set on RXF 393 (setting [4]), 58.4 µM; with SN12C (setting [4]), 55.9 µM. Moreover, the CC50 in the data set with TK-10 (setting [4]) is 56.3 µM; with DU-145 (setting [4]), 56.6 µM; in the data set with MCF-7 (setting [4]), 57.1 µM; in the data set with NCI/ADR-RES (setting [4]) it was above 100 µM; in the data set with MDA-MB-435 (setting [4]), 55.6 µM; in the data set on MDA-N (setting [4]) it was 55.2 µM. The CC50 with BT-549 (setting [4]) worked out at 64.7 µM; in the data set on T-47D (setting [4]) it was 68.9 µM; in [2] (read-out: Median Lethal Concentration (LC50), Mean), 64.6 µM.

As for `O=C1C(=Cc2ccccc2O)COCC1=Cc1ccccc1O` [EF25, 3,5-Bis(2-hyrdoxybenzylidene)tetrahydro4-H-pyran4-one], in data set [1] (setting [5]), the “GI50 compared with CISPLATIN, in words” value was “lower GI50 than the chemotherapeutic agent CISPLATIN for several cell types” and the “LC50 compared with CISPLATIN, in words” value is “lower LC50 than the chemotherapeutic agent CISPLATIN for several cell types”. Also, the GI50 in [1] (48 hours) was 1.1 µM. In data set [1] (read-out: Median Lethal Concentration (LC50), Mean, Mean over the cell line panel, 48 hours, SRB assay), the CC50 stood at 24.2 µM. In addition, the “Cell Viability” value with RPMI-7951 human melanoma (5 μM) worked out at 12%.

Regarding `C(=C\c1ccccc1)/S/C=C/c1ccccc1` [EF15], the GI50 in data set [1] (48 hours) was determined as 75.9 µM. In the data set with RPMI-7951 human melanoma (5 μM), the “Neutral Red Uptake, %” value was 100 % of control and the “Cell Viability” value came to 112%. In the data set with RPMI-7951 human melanoma (20 μM), the “Neutral Red Uptake, %” value is 100 % of control and the “Cell Viability” value is 111%.

With `N.N.[Cl][Pt][Cl]` [Cisplatin, reference compound], the GI50 in data set [1] (48 hours) is 0.7 µM. Also, the “Neutral Red Uptake, %” value in the data set on RPMI-7951 human melanoma (5 μM) and in the data set with RPMI-7951 human melanoma (20 μM) was 100 % of control each time.
